Assay: Acetal cleavage in simulated gastric fluid (SGF)
Format: physicochemical
Conditions: 35-37° C., EtOAc extract analyzed by thin layer chromatography
Experimental: Acetal cleavage in simulated gastric fluid (SGF): propane-1,2,3-triyl tris(2-(2,4-dimethyl-1,3-dioxan-2-yl)acetate) (1 g, 2 mmol, 1 eq) was mixed with simulated gastric fluid (SGF) (5 g, 5 rel. eq.) at 35-37° C. After 30 min, 1 h and 2 h the mixture was sampled and extracted with EtOAc.

CC1CCOC(C)(CC(=O)OCC(COC(=O)CC2(C)OCCC(C)O2)OC(=O)CC2(C)OCCC(C)O2)O1 (centres unmarked) [propane-1,2,3-triyl tris(2-(2,4-dimethyl-1,3-dioxan-2-yl)acetate)]
hydrolysis to 1,3-butanediol and propane-1,2,3-triyl tris(3-oxobutanoate) (after 30 min): a majority of the product had hydrolyzed
hydrolysis to 1,3-butanediol and propane-1,2,3-triyl tris(3-oxobutanoate) (after 1 h): hydrolyzation was complete
